From publication PMC4020785 (PLoS ONE, 2014)

Legend:
[1] = tested on: HIV-1 clone ZM247Fv-1 (subtype C); experiment: HIV-1 ZM247Fv-1 (subtype C) infection of MT-4 cells, Cell Titer Blue readout; assay type: cell-based
Procedure: (§1) Human PMBCs were incubated with 100 U recombinant IL-2 (Sigma-Aldrich) and 5 µg/mL phytohemagglutinin-P (PHA-P) (Difco) for 5 days at 37°C. MT-4 cells (1×10^6) or treated PBMCs (1.2×10^8) were infected with HIV-1 clone NL-4.3 or ZM247Fv-1 (MOI of 0.001) by spinoculation (1200 g at room temperature for 2 h). Uninfected cells were used as negative control and were also subjected to the spinoculation process. After spinoculation, supernatants were discarded and cells were resuspended in 10 mL of R10. Cells from each condition were then added to wells (96-well plate) containing serial dilutions of each ISD. For MT-4 cells, each dilution was done in sextuplicates and, for PBMCs, in triplicates. Cells were also incubated with different concentrations of ZDV as positive control. After 5 days in culture, Cell Titer Blue was added to each well and cells were incubated for additional 24 h. The median effective concentration for each drug is defined as EC50. In parallel with the infectivity assay, the same cell types were treated with different concentrations of drugs to determine their cytotoxicity, following the protocol described above. Drug concentration that results in a 50% decrease in viable cells is defined as the CC50 for each compound. EC50 was calculated according to Spearman-Karber and therapeutic index was defined by the ratio between CC50 and EC50 [55].
(§2) All statistical analyses were performed using program GraphPism version 6.0. Titrations for TCID50 infectivity were calculated by the Spearman-Karber method. Dose response curves to ISDs with HIV-1 subtype B and C were done using non-linear regression and were fit to the Hill equation.

[2] = tested on: HIV-1 clone NL4.3 (subtype B); experiment: HIV-1 NL4.3 (subtype B) infection of human PBMCs, Cell Titer Blue readout; assay type: cell-based
Procedure: as §1, §2

[3] = tested on: HIV-1 clone ZM247Fv-1 (subtype C); experiment: HIV-1 ZM247Fv-1 (subtype C) infection of human PBMCs, Cell Titer Blue readout; assay type: cell-based
Procedure: as §1, §2

[4] = Cytotoxicity (CC50) in human PBMCs; assay type: cell-based; conditions: human PBMCs activated with IL-2 and PHA-P; Human PBMC, Subtype C (R5)
Procedure: (§3) Cytotoxicity of ISDs was evaluated in J-Lat (clones 9.2 and 10.6) and PHA-activated human PBMCs. Cells were added to wells in a 96-well plate in the presence of various concentrations of ISDs, PMA or prostratin in sextuplicates for 24 and 72 h. Cell viability was determined using the CellTiter-blue fluorescence Cell Viability Assay (Promega) following the manufacturer's instruction.
as §1

[5] = tested on: J-Lat (clones 9.2 and 10.6); experiment: Cell viability of J-Lat clones 9.2 and 10.6 (CellTiter-blue); assay type: cell-based; conditions: J-Lat clones 9.2 and 10.6, 48 h
Procedure: Cytotoxicity of ISDs was evaluated in J-Lat (clones 9.2 and 10.6) and PHA-activated human PBMCs. […] Cell viability was determined using the CellTiter-blue fluorescence Cell Viability Assay (Promega) following the manufacturer's instruction.

[6] = tested on: HIV-1 p24 in J-Lat clones; experiment: HIV-1 p24 production in J-Lat clones (ELISA); assay type: cell-based; conditions: J-Lat clones, GFP and p24 taken together
Procedure: (§4) ACH-2 and J1.1 are clonal cell lines derived from CEM [52] and Jurkat cells, respectively, after infection with HIV-1. U1 cells were derived from the human promonocyte cell line U937 and chronically infected with HIV-1 [54]. Each cell line (1×10^6 cells) was incubated in the presence of 1 µM of diterpenes (ING-A, ING-B, ING-C, prostratin and PMA) or 10 ng/mL TNF-α for 48 h at 37°C. After incubation, cells were centrifuged and supernatants were collected for the quantitation of gag p24 antigen by ELISA, following the protocol described by the manufacturer (Perkin Elmer).
To assess whether the GFP expression levels induced by ISDs in J-Lats led to viral production, all five clones were stimulated with 1 µM of each compound for 48 h and production of HIV-1 p24 was measured in the culture supernatant by ELISA. Levels of p24 were proportional to GFP expression in clones 6.3 and 9.2, whereas levels in clone 8.4 were lower when compared to GFP (Figure 3A).

J1.1 cells = experiment: gag p24 production in J1.1 cells (ELISA); assay type: cell-based, HIV-1; conditions: 1 µM, 48 h
Procedure: as §4

human PBMCs = experiment: Cytotoxicity in human PBMCs at 24 and 72 h; assay type: cell-based
Procedure: as §3

HIV-1 NL4.3-Luc = experiment: Luciferase expression in CD4+ T cells pre-treated and infected with NL4.3-Luc; assay type: cell-based; conditions: cells pre-treated 24 h, infected with NL4.3-Luc MOI 0.1
Procedure: CD4+ T cells were isolated by negative selection from human PBMCs (2.5×10^8 cells) using magnetic beads (Miltenyi) and incubated with 5 µg/mL PHA-P and 100 U IL-2 for 5 days. Cells were then seeded in 6-well plates (10^6 cells per well) and treated with different concentrations of ING-B. After 24 h, cells were infected with HIV-1 NL-Luc (MOI of 0.1) by spinoculation. Infected cells were kept at 37°C for 24 h and then collected for luciferase activity evaluation as described above.

[7] = parameters: method as in personal communication from Bioqual – Rockville, USA; conditions: Rhesus macaques, orally treated at similar dose; ref personal communication from Bioqual – Rockville, USA; cited from earlier work
[8] = Human immunodeficiency virus 1, PBMC

With `CCCCCC(=O)O[C@H]1C(C)=C[C@]23C(=O)[C@@H](C=C(CO)[C@@H](O)[C@]12O)[C@H]1[C@@H](C[C@H]3C)C1(C)C` [ING-B, ingenol-3-hexanoate] the EC50 ([1]; Human immunodeficiency virus 1, MT4) was 25 nM, the “TI (CC50/EC50)” value ([1]; MT-4 cells, Subtype C (R5)) was 1120 and the “TI (CC50/EC50)” value ([2]; Human PBMC, Subtype B (X4)) was 714.3. The EC50 [2, 8] was 56 nM, the “TI (CC50/EC50)” value ([3]; Human PBMC, Subtype C (R5)) was 851 and the EC50 [3, 8] was 47 nM. The CC50 at 5 days [4] was 40000 nM, the “cell viability / toxicity” value [5] was “lower toxicity when compared to its counterparts” and the “HIV-LTR activation, overall comparison” value [6] was “equivalent levels to PMA and TNF-α”. The “p24 production (in words)” value (J1.1 cells) was “as much p24 production as PMA and TNF-α, and twice as much as prostratin”, the cytotoxicity (human PBMCs) was “less cytotoxic after 72 h of treatment” and the “levels of HIV-driven luciferase” value (HIV-1 NL4.3-Luc) was “dramatically reduced”. For the same molecule, the side effects [7] was “negligible side effects”.
